# Like-named read-outs stand apart in the source and are kept apart here. Marks after values point to notes of the source that are not given here.
# Columns and labels:
# Bacillus mycoides [1] = assay: microbe, parasite or virus in culture; assay type: cell-based
# Escherichia coli [2] = assay: Agar well diffusion, E. coli; assay type: cell-based; details: Escherichia coli, read-out: Inhibition zones diameter
# Candida albicans [3] = assay: Agar well diffusion, C. albicans; assay type: cell-based
# Bacillus mycoides [4] = assay: microbe, parasite or virus in culture; assay type: cell-based; remark: listed apart in the source
# Escherichia coli [5] = assay: MIC by serial dilution (agar wells), E. coli; assay type: cell-based
# Candida albicans [6] = assay: MIC by serial dilution (agar wells), C. albicans; assay type: cell-based
# colon cancer (HCT116) = assay: cells; assay type: cell-based; details: Homo sapiens
# skin cancer (A431) = assay: cells; assay type: cell-based; details: Homo sapiens, 48 h
# [7] = test system: hepatocellular carcinoma cell line (HePG2); assay: cells; assay type: cell-based; details: Homo sapiens, 48 h
# [8] = test system: osteosarcoma cell line (HOS); assay: cells; assay type: cell-based; details: Homo sapiens, 48 h
# in vitro = assay type: cell-based; details: human, BJ1 normal skin fibroblast cells, 100 μg/mL
# [9] = test system: normal skin fibroblast cell line (BJ1); assay: cells; assay type: cell-based; details: Homo sapiens, Skin fibroblast, MTT, 48 h
# TP53 = assay: qRT-PCR, TP53 in HCT116 cells; assay type: cell-based, human; details: versus negative samples
# Procedure: RNA was extracted from pancreas, prostate, lung and liver cell lines using a total RNA purification kit (Qiagen, Hilden, Germany) according to the manufacturer's instructions. An aliquot of RNA was diluted in RNase-free water to estimate RNA quantity. Aliquots were used immediately for reverse transcription (RT). cDNA synthesis was performed on extracted RNA, which was treated with DNase (Invitrogen, Germany) to remove any possible DNA contamination. The DNase-treated RNA was reverse transcribed into first-strand cDNA using the RevertAid First Strand cDNA Synthesis kit (Fermantas) according to the manufacturer's instructions. Determination of the pancreas, prostate, lung and liver cell line cDNA copy number was carried out using StepOne™ Real-Time PCR System from Applied Biosystems (Thermo Fisher Scientific, Waltham, MA USA). Gene expressions were detected by real-time PCR, which was performed using the Rotor-Gene Q system (Qiagen Company). A 25 µL reaction mixture consisted of 12.5 µL SYBR® Premix Ex TaqTM (TaKaRa, Biotech. Co. Ltd.), 0.5 µL of each primer (10 PMole) (Table 1), 1 µL cDNA (50 ng) and 10.5 µL RNase free water. The optimum amplification conditions were chosen empirically according to each tested gene. Generally, the amplification conditions include initial incubation (95.0 °C for 3 min), then 40 cycles of amplification with denaturation (95.0 °C for 15 s), annealing (55.0 °C for 30 s) and extension (72.0 °C for 30 s) steps then 71 cycles which started at 60.0 °C and then increased about 0.5 °C every 10 s up to 95.0 °C. Mean cycle threshold (Ct) values of triplicate samples are used for analysis. The Ct value indicates the fractional cycle number at which the amount of amplified target reaches a fixed threshold. Data from real-time PCR were analyzed using 2^−∆∆Ct method[38]–[40]. Data were represented as the fold change in target gene expression normalized to a House-Keeping gene (HKG) and relative to the control. β-actin was used as a HKG to normalize input RNA amount, RNA quality and reverse transcription efficiency.
# FASN = assay: qRT-PCR, FASN in HCT116 cells; assay type: cell-based, human; details: versus negative samples
# HCT116 [10] = assay: DNA damage, comet assay, HCT116; assay type: cell-based, human
# HCT116 [11] = assay: DNA fragmentation assay, HCT116; assay type: cell-based, human
# [12] = read-out: Minimum inhibition concentration (MIC)
# [13] = 0.00488 mg/mL, 150 µL in DMSO, 15 mm agar well
# [14] = 0.00975 mg/mL, 150 µL in DMSO, 15 mm agar well
# [15] = 0.0195 mg/mL, 150 µL in DMSO, 15 mm agar well
# [16] = 0.0391 mg/mL, 150 µL in DMSO, 15 mm agar well
# [17] = 0.0781 mg/mL, 150 µL in DMSO, 15 mm agar well
# [18] = 0.1563 mg/mL, 150 µL in DMSO, 15 mm agar well
# [19] = 0.3125 mg/mL, 150 µL in DMSO, 15 mm agar well
# [20] = 0.625 mg/mL, 150 µL in DMSO, 15 mm agar well
# [21] = 1.25 mg/mL, 150 µL in DMSO, 15 mm agar well
# [22] = 2.50 mg/mL, 150 µL in DMSO, 15 mm agar well
# [23] = 5.00 mg/mL, 150 µL in DMSO, 15 mm agar well
# [24] = 10.0 mg/mL, 150 µL in DMSO, 15 mm agar well
smiles,measurement,setting,value
"Cc1ccc(S(=O)(=O)NC(=O)Nc2cc(C(F)(F)F)cc(C(F)(F)F)c2)cc1 [Compound 9, N-[(3,5-bis{Trifluoromethyl}phenyl)carbamoyl]-4-methylbenzenesulfonamide]",Inhibition zones diameter,"Bacillus mycoides [1]; B. mycoides, 200 μL of 10 mg/mL in DMSO in 15 mm holes, overnight 37 °C",41 ± 0.0 mm
same,zone of inhibition at 10000 µg/mL,"Bacillus mycoides [1]; Bacillus mycoides, read-out: Inhibition zones diameter",41 mm
same,zone of inhibition at 10000 µg/mL,Escherichia coli [2],37 ± 0.74 mm
same,Inhibition zones diameter,"Candida albicans [3]; C. albicans, 200 μL of 10 mg/mL in DMSO in 15 mm holes, overnight 37 °C",41 ± 0.21 mm
same,zone of inhibition at 10000 µg/mL,"Candida albicans [3]; Candida albicans, read-out: Inhibition zones diameter",41 mm
same,zone of inhibition at 4.88 µg/mL,Bacillus mycoides [4]; read-out: Inhibition zone,0 mm
same,zone of inhibition at 9.75 µg/mL,Bacillus mycoides [4]; read-out: Inhibition zone,0 mm
same,zone of inhibition at 19.5 µg/mL,Bacillus mycoides [4]; read-out: Inhibition zone,16 mm
same,zone of inhibition at 39.1 µg/mL,Bacillus mycoides [4]; read-out: Inhibition zone,17 mm
same,zone of inhibition at 78.1 µg/mL,Bacillus mycoides [4]; read-out: Inhibition zone,21 mm
same,zone of inhibition at 156.3 µg/mL,Bacillus mycoides [4]; read-out: Inhibition zone,25 mm
same,zone of inhibition at 312.5 µg/mL,Bacillus mycoides [4]; read-out: Inhibition zone,28 mm
same,zone of inhibition at 625 µg/mL,Bacillus mycoides [4]; read-out: Inhibition zone,29 mm
same,zone of inhibition at 1250 µg/mL,Bacillus mycoides [4]; read-out: Inhibition zone,30 mm
same,zone of inhibition at 2500 µg/mL,Bacillus mycoides [4]; read-out: Inhibition zone,32 mm
same,zone of inhibition at 5000 µg/mL,Bacillus mycoides [4]; read-out: Inhibition zone,33 mm
same,zone of inhibition at 10000 µg/mL,Bacillus mycoides [4]; read-out: Inhibition zone,33 mm
same,MIC,Bacillus mycoides [4]; [12],19.5 µg/mL
same,zone of inhibition at 4.88 µg/mL,Escherichia coli [5]; [13],0 mm
same,zone of inhibition at 9.75 µg/mL,Escherichia coli [5]; [14],0 mm
same,zone of inhibition at 19.5 µg/mL,Escherichia coli [5]; [15],0 mm
same,zone of inhibition at 39.1 µg/mL,Escherichia coli [5]; [16],0 mm
same,zone of inhibition at 78.1 µg/mL,Escherichia coli [5]; [17],16 mm
same,zone of inhibition at 156.3 µg/mL,Escherichia coli [5]; [18],20 mm
same,zone of inhibition at 312.5 µg/mL,Escherichia coli [5]; [19],25 mm
same,zone of inhibition at 625 µg/mL,Escherichia coli [5]; [20],30 mm
same,zone of inhibition at 1250 µg/mL,Escherichia coli [5]; [21],32 mm
same,zone of inhibition at 2500 µg/mL,Escherichia coli [5]; [22],33 mm
same,zone of inhibition at 5000 µg/mL,Escherichia coli [5]; [23],34 mm
same,zone of inhibition at 10000 µg/mL,Escherichia coli [5]; [24],35 mm
same,MIC,Escherichia coli [5]; [12],78.1 µg/mL
same,zone of inhibition at 4.88 µg/mL,Candida albicans [6]; [13],0 mm
same,zone of inhibition at 9.75 µg/mL,Candida albicans [6]; [14],0 mm
same,zone of inhibition at 19.5 µg/mL,Candida albicans [6]; [15],0 mm
same,zone of inhibition at 39.1 µg/mL,Candida albicans [6]; [16],16 mm
same,zone of inhibition at 78.1 µg/mL,Candida albicans [6]; [17],20 mm
same,zone of inhibition at 156.3 µg/mL,Candida albicans [6]; [18],23 mm
same,zone of inhibition at 312.5 µg/mL,Candida albicans [6]; [19],25 mm
same,zone of inhibition at 625 µg/mL,Candida albicans [6]; [20],28 mm
same,zone of inhibition at 1250 µg/mL,Candida albicans [6]; [21],32 mm
same,zone of inhibition at 2500 µg/mL,Candida albicans [6]; [22],34 mm
same,zone of inhibition at 5000 µg/mL,Candida albicans [6]; [23],35 mm
same,zone of inhibition at 10000 µg/mL,Candida albicans [6]; [24],36 mm
same,MIC,Candida albicans [6]; [12],39.1 µg/mL
same,mortality at 100 µg/mL,"colon cancer (HCT116); HCT-116, 48 h, 100 μg/mL",100%
same,IC50,"colon cancer (HCT116); HCT-116, MTT, 48 h",17.8 ± 0.35 µM
same,mortality at 100 µg/mL,"skin cancer (A431); A-431, 100 μg/mL",100%
same,IC50,"skin cancer (A431); A-431, MTT",113.3 ± 0.68 µM
same,mortality at 100 µg/mL,[7]; 100 μg/mL,100%
same,IC50,[7]; MTT,12.4 ± 0.17 µM
same,mortality at 100 µg/mL,[8]; 100 μg/mL,100%
same,IC50,[8]; MTT,17.6 ± 0.24 µM
same,"mortality at 48 h, 100 µg/mL",in vitro,28 ± 0.61%
same,IC50,[9],52.5 ± 0.74 µM
same,TP53 gene expression level,TP53,suppression
same,FASN gene expression level,FASN,suppression
same,DNA damaged cells % (mean ± SEM),HCT116 [10],19.75 ± 1.25^b %
same,"Class 0 (no tail), number of cells",HCT116 [10]; of 400 cells analyzed,321
same,"Class 1 (tail length < diameter of nucleus), number of cells",HCT116 [10]; of 400 cells analyzed,37
same,"Class 2 (tail length between 1 and 2 × the diameter of nucleus), number of cells",HCT116 [10]; of 400 cells analyzed,24
same,"Class 3 (tail length > 2 × the diameter of nucleus), number of cells",HCT116 [10]; of 400 cells analyzed,18
same,"No. of cells, Comets",HCT116 [10]; of 400 cells analyzed,79
same,Change (DNA fragmentation versus untreated cells),HCT116 [11],18.10
same,DNA fragmentation % M ± SEM,"HCT116 [11]; IC50 concentration, 24 h",29.0 ± 0.54^a %
same,Inhibition,HCT116 [11]; doxorubicin = 0.00,-13.81
